The values below are quoted from earlier work in patent US7470509B2, “Compositions and methods for the identification, assessment, prevention and therapy of ovarian cancer” (Millennium Pharmaceuticals, Inc., priority 2002, dated 2008).

This data set deals with tumor. Conditions: U.S. Pat. No. 5,840,929.

On to `CC(=O)O[C@@]12CO[C@@H]1C[C@H](O)[C@@]1(C)C(=O)[C@H](O)C3=C(C)[C@@H](OC(=O)[C@H](O)[C@@H](NC(=O)OC(C)(C)C)c4ccccc4)C[C@@](O)([C@@H](OC(=O)c4ccccc4)[C@H]21)C3(C)C` [Taxotere, docetaxel], for which the “anti-tumor activity in animal models” value was “good anti-tumor activity”.
